Patent publication US20130096070A1, “PEPTIDE TARGETING OF INNER EAR CELLS” (priority 2009, published 2013)
No end group written: not given here.

Assays:
[1] = test system: mouse saccule and utricle cultures; test: Phage display panning of mouse saccule and utricle cultures, sequencing of colonies; format: binding; conditions: colonies with this sequence among one hundred colonies sequenced after four rounds of panning
Protocol: C57B1/6 Mice were purchased from Jackson Laboratory (Bar Harbour, Me.). At 8 weeks of age the mice were sacrificed and saccule and utricles were isolated under direct visualization. The cells were cultured in 100 μl DMEM/0.001 M neomycin for 48 hours as is standard. All animal protocols were approved by the University of Kansas animal research advisory committee.
A phage library (New England Biolabs, Beverly, Mass.) displaying random 7-mer peptides attached to the NH2-terminus of the pIII protein of the filamentous M13 bacteriophage was used for panning with mouse inner ear cells. In round 1 of panning, 2×10^11 plaque-forming units of the phage library in 200 μl of 1×PBS buffer were added to the inner ear cells and were incubated for 4 h at 4° C. with shaking. The cells were washed 10× with Tris-buffered saline/0.1% Tween under direct visualization and the remaining bound phage were eluted for 10 min with 100 μl of 0.2 M glycine-HCl, pH 2.2, and neutralized with 15 μl of 1 M Tris-HCl, pH 9. A 10 μl aliquot was used for tittering and the remaining eluate was used to infect early log phase ER2738 host bacteria in 20 ml LB media and amplified for 4.5 h at 37° C. with shaking. Bacteria were removed by pellet centrifugation 2×10 min at 10,000 g. The supernantant was added to ⅙ quantity 20% (w/v) polyethylene glycol-8000, 2.5 M NaCl. After overnight incubation at 4° C., the phage was pelleted by centrifugation at 15 min at 10,000 g, and resuspended in 200 μl TBS. Amplified phage product was tittered on X-gal/IPTG plates. A 10 μl aliquot from the phage pool was used to titer phage pfu/μl before and after phage amplification in E. coli. In subsequent rounds 2×10^11 plaque-forming units of the amplified phage pool from the previous round were added to mouse inner ear cells and panned was performed as previously described. All panning experiments were performed in duplicate.
After 4 rounds of panning, isolated colonies were streak plated on X-gal/IPTG plates. Individual colonies were used to infect early log phase ER2738 host bacteria in 4 ml LB media and amplified for 4.5 h at 37° C. The bacteria was pelleted by centrifugation and phage recovered from the supernatant using QIAprep Spin M13 kit (Qiagen, Valencia, Calif.) and resuspended in 50 μl molecular grade water. ssDNA quantity was determined by absorption spectrophotometry. The 7-mer peptide DNA coding regions were sequenced using a −96 gIII sequencing primer (5′-CCCTCATAGTTAGCGTAACG-3′). These sequences were translated and queried on the BLAST protein database (NCBI).
One hundred colonies were sequenced (Table 1). There were 23 colonies which translated to the peptide sequence t-v-p-q-l-t-t, which was homologous to the protein laminin. Eleven colonies which translated to the peptide sequence s-t-t-k-l-a-l, which was homologous to a sodium/hydrogen exchanger protein. Eight colonies which translated to the peptide sequence m-e-g-y-i-h-r, which was homologous to the protein cathepsin L. Two colonies each that translated to the peptide sequences h-a-i-y-p-r-h, h-s-r-l-l-d-q, i-q-s-p-h-f-f and y-a-a-h-r-s-h, which were homologous to the proteins itchy 3, discs large homolog, protocadherin and myelin transcription factor 1, respectively. The remaining colony sequences occurred only once, however within these sequences, several translated to peptides that had homology to the same protein. For example, a-h-p-h-h-s-m and h-p-h-h-r-i-f both contained the peptide sequence h-p-h-h with homology to mitogen activated protein kinase 8.

Organ of Corti = test: Immunohistochemistry identification of phage binding regions in mouse inner ear (Organ of Corti); format: in vivo; conditions: phage 1×10^9 pfu injected into round window of neomycin-treated mice, anti-M13 immunostaining 1 hour after inoculation
Protocol: (§1) Candidate 7-mer peptide epitopes were selected from the BLAST queried sequences. Colonies were amplified in 20 ml LB media and recovered as previously described. Phage (1×10^9 pfu) were injected into the round window of mice previously treated with 1 μl 0.01 M neomycin injected into the posterior channel 48 hours prior to phage innoculation. Mice were sacrificed by intracardiac perfusion with 4% PBS buffered paraformaldehyde 1 hour after phage inoculation. The temporal bones were isolated and decalcified in Calex (Fisher Scientific, Pittsburgh, Pa.) for 24 hours. The temporal bones were embedded in paraffin and sectioned. Primary antibody directed against the M13 protein (rabbit anti-M13) in 1/100 concentration was added to tissue samples and allowed to incubate for 12 hrs at 4° C. The samples were washed in PBS and incubated with 1/50 concentration fluorescent secondary antibody (goat anti-rabbit, FITC) for 12 hrs at 4° C. After washing, tissue sections were visualized and photographed via fluorescent microscopy.
To determine the potential for identified peptide sequences to bind […] be purified individual batches of phage and injected them into the perilymph via the round window. The animals were allowed to recover and were then fixed via perfusion. Sections of the inner ear were immunostained for the presence phage to determine if the phage had been able to localize to supporting cells in vivo. […] The most common pattern of distribution that was seen was binding to the basement membrane.

[2] = mouse, in vivo
Excerpt: As a screening test for balance function, mice were swim tested by dropping them from a fixed height into an opaque pool of water. […] Animals with impaired vestibular function are known to have to prolonged swim times. Mice were swim tested two months after aminoglycoside ablation followed by no treatment or treatment with Ad math1.11D.

[3] = test system: myosin VII positive hair cells; conditions: mouse, in vivo
Protocol: Briefly, mice were treated with an injection of neomycin 10^−3 M into the scala tympani. After 5 days animals were re-anesthetized and 1 μl of Ad.math1.11d (108 pu) were delivered via a fenestration in the posterior semicircular canal. After 4 weeks, animals were sacrificed and then processed for myosin VII immunohistochemistry.

vestibular hair cells = test: Vestibular hair cell counts after intracochlear neomycin and adenovector atoh1 delivery; conditions: aminoglycoside (neomycin 10^-3 M, 2 μl into inner ear) only, n=5; untreated controls 21.8+2
Protocol: Characterization of atoh1/math1 effects were as follows. Unilateral vestibular damage was induced by injecting 2 μl of neomycin (10^−3 M) in to the inner ear of mice. After inducing unilateral vestibular dysfunction mice received an intracochlear injection of an advanced generation adenovector carrying atoh1 driven by a human CMV promoter (Admath1.11D) via the round window membrane into the scala tympani. […] After one month recovery, animals were sacrificed and processed for histology. […] Cells were identified by position of the nucleus and every fifth section was counted and expressed as cell number per 100 μm length of neuroepithelium.

Macular Organs = test: Immunohistochemistry identification of phage binding regions in mouse inner ear (Macular Organs); format: in vivo; conditions: phage 1×10^9 pfu injected into round window of neomycin-treated mice, anti-M13 immunostaining 1 hour after inoculation
Protocol: as §1
To determine the potential for identified peptide sequences to bind in vitro be purified individual batches of phage and injected them into the perilymph via the round window. The animals were allowed to recover and were then fixed via perfusion. […]

ALQYHNL [phage pIII NH2 terminal 7 amino acid peptide]
# of Common Sequences [1]: 1 | Phage binding site, Organ of Corti (Organ of Corti): No binding

SEGRLYK [phage pIII NH2 terminal 7 amino acid peptide]
# of Common Sequences [1]: 1 | Phage binding site, Organ of Corti (Organ of Corti): No binding

tvpqltt: phage pIII NH2 terminal 7 amino acid peptide (TVPQLTT)
# of Common Sequences [1]: 23

STTKLAL [phage pIII NH2 terminal 7 amino acid peptide]
# of Common Sequences [1]: 11 | Phage binding site, Organ of Corti (Organ of Corti): No binding

yaahrsh: phage pIII NH2 terminal 7 amino acid peptide (YAAHRSH)
# of Common Sequences [1]: 2

MPIPRPP [phage pIII NH2 terminal 7 amino acid peptide]
# of Common Sequences [1]: 1

hsrlldq: phage pIII NH2 terminal 7 amino acid peptide (HSRLLDQ)
# of Common Sequences [1]: 2

ahphhsm: phage pIII NH2 terminal 7 amino acid peptide (AHPHHSM)
# of Common Sequences [1]: 1

NC[C@@H]1O[C@H](O[C@H]2[C@@H](O)[C@H](O[C@@H]3[C@@H](O)[C@H](N)C[C@H](N)[C@H]3O[C@H]3O[C@H](CN)[C@@H](O)[C@H](O)[C@H]3N)O[C@@H]2CO)[C@H](N)[C@@H](O)[C@@H]1O [aminoglycoside, neomycin]
swim time (time to initiate purposeful swimming) [2]: 22+4.2 seconds | myosin VII positive cells in macular organs [3]: only occasional myosin VII positive cells | average hair cell counts, serially sectioned saccules (vestibular hair cells): 2.2+2 /100 μm

iqsphff: phage pIII NH2 terminal 7 amino acid peptide (IQSPHFF)
# of Common Sequences [1]: 2

ProThrProMeThrLeuTyr
Phage binding site, Macular Organs (Macular Organs): No binding

HisAlaIleTyrProArgHis (HAIYPRH; printed: HisAlaIleTyrProArgHis) [phage pIII NH2 terminal 7 amino acid peptide]
# of Common Sequences [1]: 2

HPHHRIF [phage pIII NH2 terminal 7 amino acid peptide]
# of Common Sequences [1]: 1 | Phage binding site, Organ of Corti (Organ of Corti): No binding

THQARSV [phage pIII NH2 terminal 7 amino acid peptide]
# of Common Sequences [1]: 1 | Phage binding site, Organ of Corti (Organ of Corti): No binding

getrapl
# of Common Sequences [1]: 1

megyihr: phage pIII NH2 terminal 7 amino acid peptide (MEGYIHR)
# of Common Sequences [1]: 8

SNQLLMT [phage pIII NH2 terminal 7 amino acid peptide]
# of Common Sequences [1]: 1 | Phage binding site, Organ of Corti (Organ of Corti): No binding

PPRPIPM
Phage binding site, Organ of Corti (Organ of Corti): No binding
